Where “and” joins values, the source holds several entries; their conditions need not be identical. Identical values can stand only once. Inconclusive results and toxic doses are left out. Rule as the data show it: active = T/C of 150% or more; inactive = T/C below 125%.
Tested on: L1210 leukemia ip in BDF1 mice, survival T/C
Assay: NCI In Vivo Anticancer Drug Screen. Data for tumor model L1210 Leukemia (intraperitoneal) in B6D2F1 (BDF1) mice
Conditions: endpoint: mean survival time, higher = longer survival
Method in brief: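 Tumor cells were implanted, animals were treated, and survival was followed. The result divides the treated measurement by the vehicle-control measurement.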

[1] = dose: 100.0 mg/kg/injection, schedule: Q04DX003 (ip), vehicle: Klucel (hydroxypropylcellulose) (HPC)
[2] = dose: 200.0 mg/kg/injection, schedule: Q04DX003 (ip), vehicle: Klucel (hydroxypropylcellulose) (HPC)
[3] = dose: 400.0 mg/kg/injection, schedule: Q04DX003 (ip), vehicle: Klucel (hydroxypropylcellulose) (HPC)
[4] = dose: 100.0 mg/kg/injection, schedule: Q01DX009 (ip), vehicle: Klucel (hydroxypropylcellulose) (HPC)
[5] = dose: 200.0 mg/kg/injection, schedule: Q01DX009 (ip), vehicle: Klucel (hydroxypropylcellulose) (HPC)
[6] = dose: 400.0 mg/kg/injection, schedule: Q01DX009 (ip), vehicle: Klucel (hydroxypropylcellulose) (HPC)
[7] = dose: 100.0 mg/kg/injection, schedule: Q01DX001 (ip), vehicle: saline
[8] = dose: 200.0 mg/kg/injection, schedule: Q01DX001 (ip), vehicle: saline
[9] = dose: 100.0 mg/kg/injection, schedule: Q01DX009 (ip), vehicle: saline with Tween-80
[10] = dose: 100.0 mg/kg/injection, schedule: Q04DX002 (ip), vehicle: saline with Tween-80
[11] = dose: 100.0 mg/kg/injection, schedule: Q04DX003 (ip), vehicle: saline with Tween-80
[12] = dose: 200.0 mg/kg/injection, schedule: Q01DX009 (ip), vehicle: saline with Tween-80
[13] = dose: 200.0 mg/kg/injection, schedule: Q04DX002 (ip), vehicle: saline with Tween-80
[14] = dose: 200.0 mg/kg/injection, schedule: Q04DX003 (ip), vehicle: saline with Tween-80
[15] = dose: 400.0 mg/kg/injection, schedule: Q01DX009 (ip), vehicle: saline with Tween-80
[16] = dose: 400.0 mg/kg/injection, schedule: Q04DX002 (ip), vehicle: saline with Tween-80
[17] = dose: 400.0 mg/kg/injection, schedule: Q04DX003 (ip), vehicle: saline with Tween-80
[18] = dose: 12.5 mg/kg/injection, schedule: Q01DX009 (ip), vehicle: Klucel (hydroxypropylcellulose) (HPC)
[19] = dose: 25.0 mg/kg/injection, schedule: Q01DX009 (ip), vehicle: Klucel (hydroxypropylcellulose) (HPC)
[20] = dose: 50.0 mg/kg/injection, schedule: Q01DX009 (ip), vehicle: Klucel (hydroxypropylcellulose) (HPC)

Measured: T/C

CCCCCCCCCCS(=O)(=O)CCS(=O)(=O)CCCCCCCCCC
inactive: [1] 97 % of control | [2] 95 % of control | [3] 97 % of control

CCc1ccccc1NC(=O)N1CCN(C)CC1
inactive: dose: 100.0 mg/kg/injection, schedule: Q01DX009 (ip), vehicle: saline 104 % of control | dose: 200.0 mg/kg/injection, schedule: Q01DX009 (ip), vehicle: saline 92 % of control

CC(C)C(/C=N/N=C(N)N)=N\N=C(N)N
inactive: dose: 15.0 mg/kg/injection, schedule: Q01DX Z (ip), vehicle: methylcellulose (MC) 94 % of control | dose: 30.0 mg/kg/injection, schedule: Q01DX Z (ip), vehicle: methylcellulose (MC) 105 % of control | dose: 60.0 mg/kg/injection, schedule: Q01DX Z (ip), vehicle: methylcellulose (MC) 94 % of control | dose: 120.0 mg/kg/injection, schedule: Q01DX Z (ip), vehicle: methylcellulose (MC) 96 % of control

COc1ccc(N=C(C(=Nc2ccc(OC)cc2)c2ccccc2)c2ccccc2)cc1
inactive: [4] 94 % of control | [1] 96 % of control | [5] 95 % of control | [2] 95 % of control | [6] 100 % of control | [3] 95 % of control

CCCCCCCCCCNC(=O)CI
inactive: [7] 100 % of control | [8] 94 % of control

CCOC(=O)c1ccc(N2C(C#N)c3ccccc3OC2c2ccccc2O)cc1 (stereo unspecified)
inactive: dose: 100.0 mg/kg/injection, schedule: Q01DX001 (ip), vehicle: saline with Tween-80 91 % of control | [9] 93 % of control and 106 % of control | [10] 95 % of control and 92 % of control | [11] 90 % of control | dose: 200.0 mg/kg/injection, schedule: Q01DX001 (ip), vehicle: saline with Tween-80 88 % of control | [12] 94 % of control and 90 % of control | [13] 95 % of control and 97 % of control | [14] 97 % of control | dose: 400.0 mg/kg/injection, schedule: Q01DX001 (ip), vehicle: saline with Tween-80 88 % of control | [15] 94 % of control and 87 % of control | [16] 95 % of control and 100 % of control | [17] 89 % of control

CSCc1cnc(N)nc1-c1ccccc1
inactive: [11] 105 % of control | [14] 97 % of control | [17] 105 % of control

O=C(O)CC(CC(=O)O)c1cccc([N+](=O)[O-])c1
inactive: dose: 100.0 mg/kg/injection, schedule: Q01DX001 (ip), vehicle: acetone 96 % of control | dose: 200.0 mg/kg/injection, schedule: Q01DX001 (ip), vehicle: acetone 98 % of control | dose: 400.0 mg/kg/injection, schedule: Q01DX001 (ip), vehicle: acetone 98 % of control

O=C(CCc1ccc(O)cc1)N/N=C/c1ccc2c(c1)OCO2
inactive: [12] 97 % of control | [15] 87 % of control

CCCCCC(=O)c1ccc(O)cc1O
inactive: dose: 12.5 mg/kg/injection, schedule: Q01DX009 (ip), vehicle: gum acacia 104 % of control | dose: 25.0 mg/kg/injection, schedule: Q01DX009 (ip), vehicle: gum acacia 109 % of control | dose: 50.0 mg/kg/injection, schedule: Q01DX009 (ip), vehicle: gum acacia 93 % of control and 95 % of control | dose: 100.0 mg/kg/injection, schedule: Q04DX003 (ip), vehicle: gum acacia 95 % of control | dose: 200.0 mg/kg/injection, schedule: Q04DX003 (ip), vehicle: gum acacia 94 % of control

CCOC(=O)C(CC(C(=O)OCC)C(=O)c1ccccc1)C(=O)c1ccccc1 (stereo unspecified)
inactive: [7] 92 % of control | [8] 90 % of control | dose: 400.0 mg/kg/injection, schedule: Q01DX001 (ip), vehicle: saline 97 % of control

CCc1ccc(/C(C#N)=C/c2ccc(N(C)CCC#N)cc2)cc1
inactive: [18] 95 % of control | [19] 95 % of control | [20] 94 % of control

COc1ccc(OC(=O)OCc2ccc(OC)c(OC)c2)cc1
inactive: [11] 102 % of control | [14] 96 % of control | [17] 96 % of control

Nc1ccc(-c2ccc(N)cc2Br)c(Br)c1
inactive: [9] 99 % of control | [11] 95 % of control | [12] 105 % of control | [14] 97 % of control | [15] 88 % of control | [17] 92 % of control

COc1cc2c(cc1OC)N(C(C)=O)Cc1cccn1C2
inactive: dose: 12.5 mg/kg/injection, schedule: Q04DX002 (ip), vehicle: Klucel (hydroxypropylcellulose) (HPC) 94 % of control | dose: 25.0 mg/kg/injection, schedule: Q04DX002 (ip), vehicle: Klucel (hydroxypropylcellulose) (HPC) 94 % of control | dose: 50.0 mg/kg/injection, schedule: Q04DX002 (ip), vehicle: Klucel (hydroxypropylcellulose) (HPC) 94 % of control

COc1cccc(/C=C/[N+](=O)[O-])c1
inactive: [18] 95 % of control | [19] 98 % of control | dose: 25.0 mg/kg/injection, schedule: Q04DX003 (ip), vehicle: Klucel (hydroxypropylcellulose) (HPC) 89 % of control | dose: 45.0 mg/kg/injection, schedule: Q04DX003 (ip), vehicle: saline with Tween-80 103 % of control | [20] 97 % of control | dose: 50.0 mg/kg/injection, schedule: Q04DX003 (ip), vehicle: Klucel (hydroxypropylcellulose) (HPC) 96 % of control | dose: 90.0 mg/kg/injection, schedule: Q04DX003 (ip), vehicle: saline with Tween-80 106 % of control | dose: 180.0 mg/kg/injection, schedule: Q04DX003 (ip), vehicle: saline with Tween-80 90 % of control

CCC1(CC)OC2=C(CC(C#N)(C#N)C(C#N)(C#N)C2)O1
inactive: dose: 5.0 mg/kg/injection, schedule: Q01DX009 (ip), vehicle: Klucel (hydroxypropylcellulose) (HPC) 104 % of control | dose: 10.0 mg/kg/injection, schedule: Q01DX001 (ip), vehicle: saline 102 % of control | dose: 10.0 mg/kg/injection, schedule: Q01DX009 (ip), vehicle: Klucel (hydroxypropylcellulose) (HPC) 105 % of control | dose: 20.0 mg/kg/injection, schedule: Q01DX001 (ip), vehicle: saline 89 % of control | dose: 20.0 mg/kg/injection, schedule: Q01DX009 (ip), vehicle: Klucel (hydroxypropylcellulose) (HPC) 102 % of control

CCO/C=C1\SC(=S)N(c2ccco2)C1=O
inactive: dose: 100.0 mg/kg/injection, schedule: Q01DX009 (ip), vehicle: saline sonified 98 % of control | dose: 200.0 mg/kg/injection, schedule: Q01DX009 (ip), vehicle: saline sonified 103 % of control | dose: 400.0 mg/kg/injection, schedule: Q01DX009 (ip), vehicle: saline sonified 92 % of control

CC(NC(=O)OC(C)(C)C)C(=O)O (stereo unspecified)
inactive: dose: 100.0 mg/kg/injection, schedule: Q01DX001 (ip), vehicle: carboxymethylcellulose (CMC) 104 % of control | dose: 200.0 mg/kg/injection, schedule: Q01DX001 (ip), vehicle: carboxymethylcellulose (CMC) 104 % of control | dose: 400.0 mg/kg/injection, schedule: Q01DX001 (ip), vehicle: carboxymethylcellulose (CMC) 104 % of control

CCCCN1C(=O)C/C(=C2\CC(=O)N(CCCC)C2=O)C1=O
inactive: [4] 91 % of control | [1] 87 % of control | [5] 94 % of control | [2] 101 % of control | [6] 91 % of control | [3] 94 % of control

Oc1c(Br)cc(Nc2c3ccccc3nc3ccccc23)cc1Br
inactive: [10] 100 % of control | [13] 95 % of control | [16] 100 % of control

COC(=O)C1C(O)CC2CCC1[N+]2(C)C (stereo unspecified)
inactive: [7] 96 % of control | [8] 100 % of control

Cc1cc2c(cc1C)C1(c3ccccc3)OC2(c2ccccc2)C(C(=O)c2ccccc2)C1C(=O)c1ccccc1 (stereo unspecified)
inactive: dose: 50.0 mg/kg/injection, schedule: Q01DX009 (ip), vehicle: saline with Tween-80 91 % of control | [9] 91 % of control | [12] 91 % of control

Cc1ccc(S(=O)(=O)c2ccc(Cl)cc2)cc1
inactive: dose: 100.0 mg/kg/injection, schedule: Q04DX003 (ip), vehicle: acetone 110 % of control | dose: 200.0 mg/kg/injection, schedule: Q04DX003 (ip), vehicle: acetone 110 % of control | dose: 400.0 mg/kg/injection, schedule: Q04DX003 (ip), vehicle: acetone 109 % of control
